Results from patent US20250312497A1, “METHOD OF TREATING PROSTATE CANCER” (Novartis AG, priority 2022, published 2025).
Where “and” joins values, the source holds several entries; their conditions need not be identical. Identical values can stand only once.

Test system: PSMA-positive mCRPC participants
Assay: PSMAfore phase III: adverse events, serious adverse events, safety topics and deaths (safety set)
Assay type: in vivo, human
Details: for AEs leading to discontinuation, Treatment-related / Grade≥3 AEs, Treatment-related / Serious AEs, Treatment-related: ARDT prior to crossover
[1] = DCO 2 Oct 2022, most common AEs (>10% in either arm)
[2] = DCO 2 Oct 2022, safety set, All Grades
[3] = DCO 2 Oct 2022, safety set, Grade >=3
[4] = DCO 2 Oct 2022, safety set, preferred term
[5] = DCO 2 Oct 2022, safety set, system organ class
[6] = DCO 21 Jun 2023, most common AEs by PT (>10% in either arm)
[7] = DCO 21 Jun 2023, safety set, All Grades
[8] = DCO 21 Jun 2023, safety set, Grade >=3
[9] = Safety set, [[…]Lu]Lu-PSMA-617 N = 227, ARDT N = 232
[10] = Safety set, [[…]Lu]Lu-PSMA-617 N = 227, ARDT N = 232 (prior to crossover), CTCAE V5.0

## O=C([O-])CN1CCN(CC(=O)[O-])CCN(CC(=O)NCC2CCC(C(=O)N[C@@H](Cc3ccc4ccccc4c3)C(=O)NCCCC[C@H](NC(=O)N[C@@H](CCC(=O)O)C(=O)O)C(=O)O)CC2)CCN(CC(=O)[O-])CC1.[177Lu+3] (some centres unmarked) [[177Lu]Lu-PSMA-617, lutetium (177Lu) vipivotide tetraxetan]
DCO 2 Oct 2022
  Fatal serious AEs: Fatal serious AEs: 1.8% in [177Lu]Lu-PSMA-
  death during the study due to study indication: 4.4%
  most frequent serious adverse event: urinary tract infection: 1.8%
  on-treatment deaths due to Study indication: 0%
  subjects who received at least one dose and died during the study: 18 (8%) n (%)
  AEs leading to discontinuation, Treatment-related: 1.8%
  Grade≥3 AEs, Treatment-related: 6.6%
  Serious AEs, Treatment-related: 2.2%
[1]
  Anaemia: 16.8%
  Arthralgia: 11.5%
  Asthenia: 23.9%
  Back pain: 7.1%
  COVID-19: 11.1%
  Constipation: 15.5%
  Decreased appetite: 12.8%
  Diarrhoea: 12.4%
  Dry mouth: 44.7%
  Fatigue: 18.1%
  Nausea: 25.2%
DCO 2 Oct 2022, safety set
  On-treatment deaths: Number of subjects who died: 4 (1.8%) n (%) and 4 (1.8) n (%)
  On-treatment deaths: Other: 4 (1.8) n (%)
  On-treatment deaths: Study indication: 0 n (%)
[2]
  AE preferred term: Anaemia: 38 (16.8) n (%)
  AE preferred term: Arthralgia: 26 (11.5) n (%)
  AE preferred term: Asthenia: 54 (23.9) n (%)
  AE preferred term: Back pain: 16 (7.1) n (%)
  AE preferred term: COVID-19: 25 (11.1) n (%)
  AE preferred term: Constipation: 35 (15.5) n (%)
  AE preferred term: Decreased appetite: 29 (12.8) n (%)
  AE preferred term: Diarrhoea: 28 (12.4) n (%)
  AE preferred term: Dry mouth: 101 (44.7) n (%)
  AE preferred term: Fatigue: 41 (18.1) n (%)
  AE preferred term: Nausea: 57 (25.2) n (%)
  Adverse events (subjects with at least one event): 202 (89.4) n (%)
  Adverse events leading to discontinuation: 9 (4.0) n (%)
  Adverse events leading to discontinuation, Treatment-related: 4 (1.8) n (%)
  Adverse events leading to dose adjustment: 5 (2.2) n (%)
  Adverse events leading to dose interruption: 16 (7.1) n (%)
  Adverse events requiring additional therapy: 121 (53.5) n (%)
  Adverse events, Treatment-related: 170 (75.2) n (%)
  Fatal serious adverse events: 4 (1.8) n (%)
  Fatal serious adverse events, Treatment-related: 0 n (%)
  Safety topic: Dry eye: 6 (2.7) n (%)
  Safety topic: Dry mouth: 101 (44.7) n (%)
  Safety topic: Fractures: 3 (1.3) n (%)
  Safety topic: Hepatotoxicity: 20 (8.8) n (%)
  Safety topic: Intracranial haemorrhage: 2 (0.9) n (%)
  Safety topic: Myelosuppression: 56 (24.8) n (%)
  Safety topic: QT prolongation: 2 (0.9) n (%)
  Safety topic: Radiotoxicity including inadvertent exposure: 0 n (%)
  Safety topic: Renal toxicity: 11 (4.9) n (%)
  Safety topic: Second primary malignancies: 3 (1.3) n (%)
  Serious AE preferred term: Anaemia: 2 (0.9) n (%)
  Serious AE preferred term: Haematuria: 0 n (%)
  Serious AE preferred term: Pain: 1 (0.4) n (%)
  Serious AE preferred term: Spinal cord compression: 2 (0.9) n (%)
  Serious AE preferred term: Urinary retention: 1 (0.4) n (%)
  Serious AE preferred term: Urinary tract infection: 4 (1.8) n (%)
  Serious adverse events (subjects with at least one event): 35 (15.5) n (%)
  Serious adverse events, Treatment-related: 5 (2.2) n (%)
[3]
  AE preferred term: Anaemia: 10 (4.4) n (%)
  AE preferred term: Arthralgia: 0 n (%)
  AE preferred term: Asthenia: 1 (0.4) n (%)
  AE preferred term: Back pain: 2 (0.9) n (%)
  AE preferred term: COVID-19: 1 (0.4) n (%)
  AE preferred term: Constipation: 1 (0.4) n (%)
  AE preferred term: Decreased appetite: 0 n (%)
  AE preferred term: Diarrhoea: 0 n (%)
  AE preferred term: Dry mouth: 1 (0.4) n (%)
  AE preferred term: Fatigue: 0 n (%)
  AE preferred term: Nausea: 0 n (%)
  Adverse events (subjects with at least one event): 53 (23.5) n (%)
  Adverse events leading to discontinuation: 6 (2.7) n (%)
  Adverse events leading to discontinuation, Treatment-related: 3 (1.3) n (%)
  Adverse events leading to dose adjustment: 1 (0.4) n (%)
  Adverse events leading to dose interruption: 9 (4.0) n (%)
  Adverse events requiring additional therapy: 34 (15.0) n (%)
  Adverse events, Treatment-related: 15 (6.6) n (%)
  Fatal serious adverse events: 4 (1.8) n (%)
  Fatal serious adverse events, Treatment-related: 0 n (%)
  Safety topic: Dry eye: 0 n (%)
  Safety topic: Dry mouth: 1 (0.4) n (%)
  Safety topic: Fractures: 1 (0.4) n (%)
  Safety topic: Hepatotoxicity: 8 (3.5) n (%)
  Safety topic: Intracranial haemorrhage: 1 (0.4) n (%)
  Safety topic: Myelosuppression: 19 (8.4) n (%)
  Safety topic: QT prolongation: 1 (0.4) n (%)
  Safety topic: Radiotoxicity including inadvertent exposure: 0 n (%)
  Safety topic: Renal toxicity: 2 (0.9) n (%)
  Safety topic: Second primary malignancies: 1 (0.4) n (%)
  Serious AE preferred term: Anaemia: 1 (0.4) n (%)
  Serious AE preferred term: Haematuria: 0 n (%)
  Serious AE preferred term: Pain: 1 (0.4) n (%)
  Serious AE preferred term: Spinal cord compression: 2 (0.9) n (%)
  Serious AE preferred term: Urinary retention: 1 (0.4) n (%)
  Serious AE preferred term: Urinary tract infection: 3 (1.3) n (%)
  Serious adverse events (subjects with at least one event): 30 (13.3) n (%)
  Serious adverse events, Treatment-related: 4 (1.8) n (%)
[4]
  On-treatment deaths: COVID-19 pneumonia: 1 (0.4) n (%)
  On-treatment deaths: Cardiac arrest: 1 (0.4) n (%)
  On-treatment deaths: Coma: 0 n (%)
  On-treatment deaths: Dyspnoea: 0 n (%)
  On-treatment deaths: Intestinal ischaemia: 1 (0.4) n (%)
  On-treatment deaths: Sepsis: 1 (0.4) n (%)
[5]
  On-treatment deaths: Cardiac disorders: 1 (0.4) n (%)
  On-treatment deaths: Gastrointestinal disorders: 1 (0.4) n (%)
  On-treatment deaths: Infections and infestations: 2 (0.9) n (%)
  On-treatment deaths: Nervous system disorders: 0 n (%)
  On-treatment deaths: Respiratory, thoracic and mediastinal disorders: 0 n (%)
DCO 21 Jun 2023
  AEs leading to discontinuation, Treatment-related: 3.1%
  Grade≥3 AEs, Treatment-related: 11.0%
  Serious AEs, Treatment-related: 3.1%
[6]
  Anaemia: 24.2%
  Arthralgia: 18.9%
  Asthenia: 31.7%
  Back pain: 12.3%
  COVID-19: 16.3%
  Constipation: 22.0%
  Decreased appetite: 21.1%
  Diarrhoea: 16.3%
  Dry mouth: 57.3%
  Fatigue: 22.9%
  Nausea: 31.3%
  Oedema peripheral: 8.4%
  Vomiting: 11.5%
  Weight decreased: 6.6%
[7]
  AE preferred term: Anaemia: 55 (24.2) n (%)
  AE preferred term: Arthralgia: 43 (18.9) n (%)
  AE preferred term: Asthenia: 72 (31.7) n (%)
  AE preferred term: Back pain: 28 (12.3) n (%)
  AE preferred term: COVID-19: 37 (16.3) n (%)
  AE preferred term: Constipation: 50 (22.0) n (%)
  AE preferred term: Decreased appetite: 48 (21.1) n (%)
  AE preferred term: Diarrhoea: 37 (16.3) n (%)
  AE preferred term: Dry mouth: 130 (57.3) n (%)
  AE preferred term: Fatigue: 52 (22.9) n (%)
  AE preferred term: Nausea: 71 (31.3) n (%)
  AE preferred term: Oedema peripheral: 19 (8.4) n (%)
  AE preferred term: Vomiting: 26 (11.5) n (%)
  AE preferred term: Weight decreased: 15 (6.6) n (%)
  Adverse events (participants with at least one event): 223 (98.2) n (%)
  Adverse events leading to discontinuation: 13 (5.7) n (%)
  Adverse events leading to discontinuation, Treatment-related: 7 (3.1) n (%)
  Adverse events leading to dose adjustment: 8 (3.5) n (%)
  Adverse events leading to dose interruption: 27 (11.9) n (%)
  Adverse events requiring additional therapy: 162 (71.4) n (%)
  Adverse events, Treatment-related: 196 (86.3) n (%)
  Fatal serious adverse events: 4 (1.8) n (%)
  Fatal serious adverse events, Treatment-related: 0 n (%)
  Serious adverse events: 46 (20.3) n (%)
  Serious adverse events, Treatment-related: 7 (3.1) n (%)
[8]
  AE preferred term: Anaemia: 14 (6.2) n (%)
  AE preferred term: Arthralgia: 0 n (%)
  AE preferred term: Asthenia: 1 (0.4) n (%)
  AE preferred term: Back pain: 2 (0.9) n (%)
  AE preferred term: COVID-19: 1 (0.4) n (%)
  AE preferred term: Constipation: 1 (0.4) n (%)
  AE preferred term: Decreased appetite: 0 n (%)
  AE preferred term: Diarrhoea: 0 n (%)
  AE preferred term: Dry mouth: 3 (1.3) n (%)
  AE preferred term: Fatigue: 0 n (%)
  AE preferred term: Nausea: 0 n (%)
  AE preferred term: Oedema peripheral: 0 n (%)
  AE preferred term: Vomiting: 0 n (%)
  AE preferred term: Weight decreased: 2 (0.9) n (%)
  Adverse events (participants with at least one event): 78 (34.4) n (%)
  Adverse events leading to discontinuation: 8 (3.5) n (%)
  Adverse events leading to discontinuation, Treatment-related: 4 (1.8) n (%)
  Adverse events leading to dose adjustment: 3 (1.3) n (%)
  Adverse events leading to dose interruption: 13 (5.7) n (%)
  Adverse events requiring additional therapy: 48 (21.1) n (%)
  Adverse events, Treatment-related: 25 (11.0) n (%)
  Fatal serious adverse events: 4 (1.8) n (%)
  Fatal serious adverse events, Treatment-related: 0 n (%)
  Serious adverse events: 41 (18.1) n (%)
  Serious adverse events, Treatment-related: 6 (2.6) n (%)
[9]
  Serious adverse event Acute kidney injury, All Grades: 2 (0.9) n (%)
  Serious adverse event Acute kidney injury, Grade >=3: 2 (0.9) n (%)
  Serious adverse event Anaemia, All Grades: 4 (1.8) n (%)
  Serious adverse event Anaemia, Grade >=3: 3 (1.3) n (%)
  Serious adverse event COVID-19, All Grades: 1 (0.4) n (%)
  Serious adverse event COVID-19, Grade >=3: 1 (0.4) n (%)
  Serious adverse event Femur fracture, All Grades: 2 (0.9) n (%)
  Serious adverse event Femur fracture, Grade >=3: 2 (0.9) n (%)
  Serious adverse event Haematuria, All Grades: 0 n (%)
  Serious adverse event Haematuria, Grade >=3: 0 n (%)
  Serious adverse event Pain, All Grades: 1 (0.4) n (%)
  Serious adverse event Pain, Grade >=3: 1 (0.4) n (%)
  Serious adverse event Pneumonia, All Grades: 1 (0.4) n (%)
  Serious adverse event Pneumonia, Grade >=3: 1 (0.4) n (%)
  Serious adverse event Sepsis, All Grades: 3 (1.3) n (%)
  Serious adverse event Sepsis, Grade >=3: 3 (1.3) n (%)
  Serious adverse event Spinal cord compression, All Grades: 2 (0.9) n (%)
  Serious adverse event Spinal cord compression, Grade >=3: 2 (0.9) n (%)
  Serious adverse event Urinary retention, All Grades: 1 (0.4) n (%)
  Serious adverse event Urinary retention, Grade >=3: 1 (0.4) n (%)
  Serious adverse event Urinary tract infection, All Grades: 4 (1.8) n (%)
  Serious adverse event Urinary tract infection, Grade >=3: 3 (1.3) n (%)
[10]
  Serious adverse events: number of participants with at least one event, All Grades: 46 (20.3) n (%)
  Serious adverse events: number of participants with at least one event, Grade >=3: 41 (18.1) n (%)
